What was measured:
[1] = test system: xenograft cell lines of metaplastic cancer origin and mesenchymal subtype breast cancer cell lines; details: sacituzumab govitecan combined with decitabine; cited from earlier work
[2] = test system: DLD-1 xenograft mouse model; experiment: Antitumor test, IMMU-132 with or without decitabine pre-treatment; format: in vivo, BALB/c-nu mice; details: IMMU-132 10 mg/kg IV Day 7, 14; with vs without DAC 0.5 mg/kg SC Day 0-4 pre-treatment; Day 28, Welch's t-test; FIG. 15
Description: Female BALB/c-nu mice aged 5 weeks (The Jackson Laboratory Japan, Inc.) were used, following 5 days acclimatization before entry into the study.
(§1) 3×10^6 of DLD-1 cells suspended in saline were implanted subcutaneously onto the flank of the mice. The major axis and the minor axis of the tumor were measured twice a week with an electronic digital caliper and the tumor volume was calculated by the following equation:
When the tumor volume reached approximately 100-150 mm^3, the tumor-bearing mice were randomly assigned to the treatment groups (Day 0) as shown in Table 2.
Statistical significance between IMMU-132 group and Decitabine+IMMU-132 group was evaluated using Welch's t-test on the tumor volumes at the day of the final measurement (Day 28).
Decitabine (DAC) was dissolved with Phosphate-buffered saline (PBS) and subcutaneously administered to the mice. IMMU-132 was dissolved with ABS buffer (10 mM Acetate buffer [pH5.5], 5% sorbitol) and intravenously administered to the tail vein of the mice. The dose volume of the compounds for each mouse was calculated based on the latest individual body weight measured within 2 days before dosing. DAC was subcutaneously administered at 0.5 mg/kg once a day from Day 0 to Day 4 (5 dosing in total). IMMU-132 was intravenously administered at 10 mg/kg to the tail vein on Day 7 and Day 14 (Weekly dosing×2).

[3] = test system: TROP2 and SLFN11 expression; details: decitabine treatment; cited from earlier work
[4] = test system: DLD-1 xenograft mouse model; experiment: Antitumor test, DS-1062a with or without decitabine pre-treatment; format: in vivo, BALB/c-nu mice; details: DS-1062a 10 mg/kg IV Day 7; DAC 0.5 mg/kg SC Day 0-4 pretreated vs untreated group; Day 28, Welch's t-test, P<0.05; FIG. 13
Description: Female BALB/c-nu mice aged 5-6 weeks (The Jackson Laboratory Japan, Inc.) were used, following 4 days acclimatisation before entry into the study.
as §1
When the tumor volume reached approximately 100-150 mm^3, the tumor-bearing mice were randomly assigned to treatment groups (Day 0) as shown in Table 1:
Decitabine (Tokyo Chemical Industry Co., Ltd) was dissolved and diluted with Phosphate-buffered saline (PBS) and subcutaneously administered to the mice. DS-1062a solution was diluted with ABS buffer (10 mM Acetate buffer [pH5.5], 5% sorbitol) and intravenously administered to the tail vein of the mice. The dose of the compounds for each mouse was calculated based on the individual body weight on the day of dosing. Decitabine was subcutaneously administered at 0.5 mg/kg once a day from Day 0 to Day 4 (5 dosing in total). […] Statistical significance between the ‘DS-1062a’ group and the ‘Decitabine+DS-1062a’ group was evaluated using Welch's t-test on the tumor volumes at the day of the final measurement (Day 28).

HCT-15 cells = experiment: Cell growth inhibition study, DS-1062a with or without decitabine pre-treatment (CellTiter-Glo); format: cell-based, Human; details: DAC (1, 0.3, 0.1 μM, 3 days) treated vs untreated cells, DS-1062a 0.1-100 nM, 8 days, FIG. 12B
Description: (§2) Human colorectal cancer cell lines DLD-1 and HCT-15, obtained from American Type Culture Collection (ATCC), were incubated with RPMI1640 medium supplemented with 10% (v/v) heat-inactivated FBS, 1% (v/v) penicillin-streptomycin solution and 1 mM sodium pyruvate (Medium), with or without Decitabine (DAC) (Tokyo Chemical Industry Co., Ltd) at 1, 0.3 and 0.1 μM at 37° C. under 5% CO2 for 3 days. The cells were harvested and re-seeded at 1000 cells/80 μL/well into 96-well black clear bottom plates, and incubated overnight at 37° C. under 5% CO2. Then 20 μL of the DS-1062a solutions diluted with the Medium at the concentrations from 500 nM to 0.5 nM were added into the wells and incubated for 6 days for DLD-1 cells, and for 8 days for HCT-15 cells, respectively. The final concentrations of DS-1062a were 100, 10, 1 and 0.1 nM. After the incubation, the cellular ATP levels were measured using CellTiter-Glo Luminescent Cell Viability Assay (Promega) and a microplate reader.
(§3) Cell viability, defined as relative percent to the value of DS-1062a non-treated cells in each group treated with or without DAC, was assessed (N=1 (triplicate), mean±SD).
(§4) Individual cell viability (%) was calculated by the following equation:
(§5) [formula] • T: individual luminescence intensity of the wells treated with DS-1062a at each concentration • C: mean luminescence intensity of the wells treated without DS-1062a

DLD-1 cells [5] = experiment: as above; format: cell-based, Human; details: DAC (1, 0.3, 0.1 μM, 3 days) treated vs untreated cells, DS-1062a 0.1-100 nM, 6 days, FIG. 12A
Description: as §2, §3, §4, §5

DLD-1 cells [6] = experiment: Cell growth inhibition study, DS-1062a with or without azacitidine pre-treatment (CellTiter-Glo); format: cell-based, Human; details: AZA (10, 3.3, 1.1 μM, 3 days) treated vs AZA untreated cells, DS-1062a 0.1-100 nM, 6 days, FIG. 14
Description: Human colorectal cancer cell line DLD-1 was incubated with RPMI1640 medium supplemented with 10% (v/v) heat-inactivated FBS (Medium), with or without Azacitidine (AZA) at 10, 3.3 and 1.1 μM at 37° C. under 5% CO2 for 3 days. The cells were harvested and re-seeded at 1000 cells/90 μL/well into a 96-well black clear bottom plate, and incubated overnight at 37° C. under 5% CO2. Then 10 μL of the DS-1062a solutions diluted with the Medium at the concentrations from 1000 nM to 1 nM were added into the wells and incubated for 6 days. The final concentrations of DS-1062a were 100, 10, 1 and 0.1 nM. After the incubation, the cellular ATP levels were measured using CellTiter-Glo Luminescent Cell Viability Assay (Promega Corporation) and a microplate reader.
Cell viability, defined as relative percent to the value of DS-1062a non-treated cells in each group treated with or without AZA, was assessed (N=1 (triplicate), mean±SD).
Individual cell viability (%) was calculated by the following equation;
as §5

Sacituzumab govitecan [IMMU-132]
antitumor efficacy [1]: enhances
antitumor activity (tumor volume) [2]: not significantly different

Nc1ncn([C@H]2C[C@H](O)[C@@H](CO)O2)c(=O)n1 [decitabine, 5-aza-2′-deoxycytidine]
TROP2 and SLFN11 expression [3]: upregulates

datopotamab deruxtecan [DS-1062a]
antitumor activity (tumor volume) [4]: significantly enhanced
cell growth inhibitory activity (cell viability) (HCT-15 cells): enhanced
cell growth inhibitory activity (cell viability) (DLD-1 cells [5]): enhanced
cell growth inhibitory activity (cell viability) (DLD-1 cells [6]): enhanced

Source: patent US20250288687A1, “COMBINATION OF ANTIBODY-DRUG CONJUGATES AND DNMT INHIBITORS” (priority 2022, published 2025)
